# Measurements reported in patent US12648892B2, “Emergency eye wash” (Lebrun Labs LLC, priority 2024, dated 2026).
# Several values for one entry are separate records, joined by “and”; a condition that tells them apart may be missing. Equal entries are not always repeated. Entries after “also recorded” stand apart in the source; their conditions may differ. Where two headings read alike, the source gives them in different places.
# Key:
# [1] = test system: corneal stromal cell (keratocytes) nuclei; test: Wash bottle study (500-mL bottle, active wash): TUNEL counts and depth of damage (DoD); format: cell-based; settings: eyes exposed to 32% sodium hypochlorite, then actively washed 15 min with 500 mL
# Method: (§1) Whole New Zealand White rabbit eyes were used Prior to exposure a 10-mm internal dosing ring (FIG. 12A, part of the IVD kit) was placed over the central cornea that was then exposed to NaOCl.
# (§2) Prior to each experiment (<1 h), NaOCl (CASRN 7681-52-9, Sigma-Aldrich, St. Louis, MO) was freshly diluted in sterile deionized water, mixed by five tube inversions prior to each application, and applied directly to the eyes (corneas) by transferring 100 μL with a micropipette into the dosing ring (FIG. 12A); the corneas were then exposed to this solution for exactly 1 min. Immediately after exposure, corneas were rinsed for exactly 30 s by forcefully dispensing 20 mL saline (9 g/L NaCl) from an eye rinsing syringe (part of the IVD kit). The pH of the 32% NaOCl was measured using a Fisherbrand™ Accumet™ AB150 pH benchtop meter (Fisher Scientific, Waltham, MA).
# A 100-ml beaker or 500-mL emergency eye wash bottle (FIG. 12B) was used to prepare the AA solution and wash the eyes (Lebrun and Nguyen, 2024). These containers hold a ready-to-use eye wash buffer (EWB) solution composed of potassium chloride (CASRN 7447-40-7, 2.7 mM; Fisher Scientific), potassium phosphate monobasic (CASRN 7778-77-0, 1.5 mM; Fisher Scientific), sodium chloride (CASRN 7647-14-5, 137.9 mM; Fisher Scientific), sodium phosphate dibasic (CASRN 7782-85-6, 8.1 mM; Sigma Aldrich), deionized water (ReadyRefresh, Stamford, CT), 1% dextran (CASRN 9004-54-0; Sigma Aldrich), and 1% bovine serum albumin (CASRN 9048-46-8; Sigma Aldrich). Before use, different amounts of powdered AA (CASRN 50-81-7; Sigma Aldrich) are dispersed into the liquid component and rapidly mixed to achieve a predefined concentration (Lebrun et al., 2021c, 2021d, 2021e) to form complete EWB+AA. […] The pH of the liquid portion of the wash solution is adjusted to 7.2 with HCl to ensure that the final wash solution for the 0.2% powdered AA reaches a pH of 6.99±0.5. For the 10% AA condition, the pH was further adjusted to 6.99±0.5 with 1 N NaOH. For the EWB only condition, the pH was adjusted to 6.99±0.5 with 1 N HCl. For the wash step, eyes were either passively soaked in beakers (100-mL conditions) or washed with an eyewash bottle (500-mL conditions) for the indicated times. The eyewash bottle allows for forceful spraying and recycling of the 500-mL solution (Lebrun and Nguyen, 2024). While this bottle can be used in vivo or in vitro, for the in vitro study described here, the eyes were placed cornea-side down in the well at the top of the bottle, and the bottles were compressed so that a jet of solution washed over the eye (see FIG. 12B).
# The corneas of whole eyes were exposed to either 100 μL of 32% NaOCl for 1 min or 100 μL deionized sterile water for 1 min (control condition) in a dosing ring. Eyes were then rinsed, and all eyes were washed using 500-mL wash bottles (FIG. 12B). Washing was with sterile tap water (municipal water, Anaheim, CA, 0.22-micron pore size filtered), EWB, or EWB+0.2% AA. After “washing,” eyes were processed following the “postexposure” steps described below.
# After washing, eyes were placed in fresh postexposure wells (part of the IVD kit) containing approximately 1.5 mL OM added to the level of the limbus. Eyes were then placed back into a humidified, 5% CO2, 37° C. incubator for 24 h. Corneas were then removed by dissection, placed in 4% paraformaldehyde in phosphate-buffered saline (fixative; Boston BioProducts, Inc., Milford, MA), and stored at 4° C.
# After a minimum of 24 h in fixative, corneas were cut in half and infiltrated with 30% sucrose (Capella et al., 1965), and the tissues were then embedded in Tissue-Tek® O.C.T. compound (Sakura Finetek, Torrance, CA), snap frozen in liquid nitrogen, and stored in an ultralow freezer (−80° C., New Brunswick Scientific, Hamburg, Germany). […]
# [2] = test system: cornea; settings: cited from earlier work
# [3] = test system: corneal stromal cell (keratocytes) nuclei; test: NaOCl titration study, TUNEL positive nuclei counts; format: cell-based; settings: New Zealand White, rabbit, 1 min, 8 %
# Method: as §1
# as §2, with “Immediately after exposure, corneas were rinsed for exactly 30 s by forcefully dispensing 20 mL saline (9 g/L NaCl) from an eye rinsing syringe (part of the IVD kit).” left out, “MA). […]” for “MA).”
# Stained sections were viewed using a Leica DMRE fluorescence microscope (Leica Microsystems Inc., Buffalo Grove, IL). […] An L5 Fluorescence Filter Cube (Leica Microsystems Inc., Buffalo Grove, IL) was used for TUNEL and DoD imaging. Images were processed and analyzed using ImageJ software, version 1.54 (Schneider et al., 2012). […] Three corneal cryosections, each approximately 2.3 mm long and 0.5-0.9 mm wide (depending on swelling), were measured for each eye. To count TUNEL-positive nuclei, the number of discrete TUNEL-positive nuclei in the stroma that meet the size parameters associated with a keratocyte nucleus were recorded for each section using ImageJ software. […]
# [4] = pH measurement of solutions; format: physicochemical; settings: 32% NaOCl
# Method: In another study, how quickly washing must be initiated was studied. AA wash was formulated as described above and used just after injury, 10 minutes after injury or 2 hours after injury. […] However this solution took 3.5 hours of rapid mixing to fully go into solution and the another 1.5 hours to adjust the pH which initially feel below to a pH of 3.25.
# as §2
compound,measurement,setting,value
Water,"Depth of Damage (DoD), AVG ± SE (overall average)",[1],59.6 ± 3.6%
same,"Depth of Damage (DoD), S. AVG ± SE (section average per eye)",[1],44.2 ± 2.8% and 68.5 ± 0.5% and 60.9 ± 0.7%
same,"TUNEL positive nuclei count, AVG ± SE (overall average)",[1],254.9 ± 17.8
same,"TUNEL positive nuclei count, S. AVG ± SE (section average per eye)",[1],231.0 ± 4.0 and 238.0 ± 2.6 and 287.7 ± 4.1
same,"TUNEL positive nuclei count, AVG ± SE (overall average)",[1]; listed as tap water,254.9±17.8
same,"Depth of Damage (DoD), AVG ± SE (overall average)",[1]; listed as water,59.6±3.6%
same,"Depth of Damage (DoD), S. AVG ± SE (section average per eye)",[1]; listed as water,44.2±2.8% and 68.5±0.5% and 60.9±0.7%
same,"TUNEL positive nuclei count, AVG ± SE (overall average)",[1]; listed as water,254.9±17.8
same,"TUNEL positive nuclei count, S. AVG ± SE (section average per eye)",[1]; listed as water,231.0±4.0 and 238.0±2.6 and 287.7±4.1
same,"Depth of Damage (DoD), Section A",[1]; per eye,47.0% and 68.4% and 62.3%
same,"Depth of Damage (DoD), Section B",[1]; per eye,41.4% and 69.4% and 59.8%
same,"TUNEL positive nuclei count, Section A",[1]; per eye,227.0 and 234.0 and 289.0
same,"TUNEL positive nuclei count, Section B",[1]; per eye,235.0 and 243.0 and 280.0
same,"Depth of Damage (DoD), Section A","[1]; per eye, listed as water",47.0% and 68.4% and 62.3%
same,"Depth of Damage (DoD), Section B","[1]; per eye, listed as water",41.4% and 69.4% and 59.8%
same,"Depth of Damage (DoD), Section C","[1]; per eye, listed as water",67.6% and 60.7%
same,"TUNEL positive nuclei count, Section A","[1]; per eye, listed as water",227.0 and 234.0 and 289.0
same,"TUNEL positive nuclei count, Section B","[1]; per eye, listed as water",235.0 and 243.0 and 280.0
same,"TUNEL positive nuclei count, Section C","[1]; per eye, listed as water",237.0 and 294.0
"O=C1O[C@H]([C@@H](O)CO)C(O)=C1O [AA, ascorbic acid]",effect on corneal ulceration,"[2]; subcutaneous injection of 15% AA solution within 3 h of the burn, once daily",ineffective; also recorded: not effective
same,effect on corneal ulceration,"[2]; topical 10% AA eye drop pH 7.2, 2 h after the burn and hourly for 14 h per day",reduced corneal ulceration
"OCl [NaOCl, sodium hypochlorite]","TUNEL positive nuclei count, AVG ± SE (overall average)",[3],3.1 ± 3.1
same,pH,[4],12.04 and 12
